According to patent US6440987B1, “Antipruritic” (Toray Industries, Inc., priority 1996, dated 2002):

Columns and labels:
[1] = system: guinea pig ileum; experiment: Assay of opioid activity by guinea pig ileum assay (electrically evoked contraction of longitudinal muscle strip); conditions: for IC50: Cavia porcellus, inhibition of electrically evoked contraction, absence of antagonist; for Ke (nM) nor-BNI (5 nM): nor-BNI as κ antagonist; for Ke (nM) Naloxone (100 nM): naloxone as μ antagonist
Experimental: Assay of opioid activity by Guinea pig ileum assay.
Male Hartley guinea pigs were used. The guinea pig was killed with a blow, and the ileum excised; the lumen of ileum was washed with a nutritious fluid; and only a piece of longitudinal muscle was stripped. This longitudinal muscle strip was suspended in a Magnus tube filled with Krebes-Henseleit solution (NaCl 135 mM; KCl 4.8 mM; CaCl2 3.4 mM; KH2PO4 1.2 mM; NaHCO3 8.3 mM; MgSO4, 2.5 mM; and glucose 11 mM) kept at 37° C., and gassed with a mixture of 5% carbon dioxide and 95% oxygen. Electrical stimulation was delivered at a rate of 0.1 Hz with 0.5 ms pulses through ring-shaped platinum electrodes placed at upper and lower levels in a Magnus tube. Tissue contractions were recorded via an isometric transducer on a polygraph.
(§1) The test drug was cumulatively added until it inhibited over 50% the contraction of specimen evoked by the electrical stimulation, in the presence or absence of naloxone as a μ antagonist, or nor-BNI as a κ antagonist, and IC50s were calculated for respective experimental conditions. From the difference in drug efficacy in the presence and absence of the antagonist, Ke values were calculated on the basis of following equations.
(§2) Ke=[Concentration of antagonist added]/(Dose ratio−1)
Dose ratio=IC50 in the presence of antagonist/IC50 in the absence of antagonist

[2] = system: mouse vas deferens; experiment: Assay of opioid activity by mouse vas deferens assay (electrically evoked contraction); conditions: for IC50: inhibition of electrically evoked contraction, absence of antagonist; for Ke (nM) Naloxone (30 nM): naloxone as μ antagonist; for Ke (nM) nor-BNI (10 nM): nor-BNI as κ antagonist; for Ke (nM) NTI (10 nM): NTI as δ antagonist
Experimental: Assay of opioid activity by mouse vas deferens assay
Male ddY mice were used for the experiment. The vas deferens specimen removed from the animal was suspended in a Magnus tube filled with Krebes-Henseleit solution (NaCl […]; KCl 5.9 mM; CaCl2 2.5 mM; NaH2PO4 1.2 mM; NaHCO3 15.3 mM; and glucose 11.5 mM) kept at 37° C., and gassed with a mixture of 5% carbon dioxide and 95% oxygen. Electrical stimulation was delivered at a rate of 0.1 Hz with 1.0 ms pulses through ring-shaped platinum electrodes placed at upper and lower levels in a Magnus tube. Tissue contractions were recorded via an isometric transducer on a polygraph.
as §1, with “test drug” for “The test drug”, “μ antagonist, nor-BNI as” for “μ antagonist, or nor-BNI as”, “κ antagonist, or NTI as a δ antagonist and IC50s” for “κ antagonist, and IC50s”
as §2
IC50 ratio=IC50 in the presence of antagonist/IC50 in the absence of antagonist

[3] = system: scratching behavior induced by Compound 48/80; parameters: species or system ddY mice; conditions: mouse, in vivo, sc
[4] = system: itching of erupted lesions of urticaria; experiment: Topical application to erupted lesions of urticaria, intensity of itching; type: in vivo, human; parameters: key to Intensity of itching five minutes after the treatment: itching whose intensity was evaluated as moderate (ranked as “++”); completely eradicated five minutes after the treatment (ranked as “−”); conditions: male adult
Experimental: An opioid compound selectively acting on a κ receptor, (−)-17-(cyclopropylmethyl)-3,14β-dihydroxy-4,5α-epoxy-6β-[N-methyl-trans-3-(3-furyl)acrylamido]morphinan hyrochloride 7, [drawing 52]
was dissolved in physiological saline, to give an aqueous solution with a concentration of 40 μg/ml. This aqueous solution was topically applied to three erupted lesions of urticaria, on the lower limb of an adult at a dose of 0.2 μg/cm^2.

[5] = system: itching due to atopic dermatitis; experiment: Topical application to skin lesions of a patient with atopic dermatitis, intensity of itching; type: in vivo, human
Experimental: The drug solution was applied on five spots with a volume of about 50 μl per 10 cm^2, which was equivalent to a topical dose of 0.2 μg/cm^2. As a comparison, indomethacin cream (having a drug concentration of 7.5 mg/g) was applied at a dose of 75 μg/cm2 in the same manner.

[6] = topical, Compound 7 0.2 μg/cm^2, indomethacin cream 75 μg/cm2, prior to application +++

| Compound | IC50 [1] | Ke (nM) nor-BNI (5 nM) [1] | IC50 [2] | Ke (nM) Naloxone (30 nM) [2] | Ke (nM) nor-BNI (10 nM) [2] | melting point | Ke (nM) Naloxone (100 nM) [1] | Ke (nM) NTI (10 nM) [2] | Inhibition (%) of scratching behavior [3] | other results |
| --- | --- | --- | --- | --- | --- | --- | --- | --- | --- | --- |
| CN(C(=O)/C=C/c1ccoc1)[C@@H]1CC[C@@]2(O)[C@H]3Cc4ccc(O)c5c4[C@@]2(CC[N+]3([O-])CC2CC2)[C@H]1O5 (stereo partly drawn) [Compound 3, 17-cyclopropylmethyl-4,5α-epoxy-3,14β-dihydroxy-6β-[N-methyl-trans-3-(3-furyl)acrylamido]morphinan-N-oxide] | 1.06 nM | 0.02 nM | 2.14 nM | 30.48 nM | 0.040 nM | 238 to 239.8 °C (dec.) |  |  |  |  |
| CN(C(=O)/C=C/c1ccoc1)[C@@H]1CC[C@@]2(O)[C@H]3Cc4ccc(O)c5c4[C@@]2(CC[N+]3(C)CC2CC2)[C@H]1O5.[I-] (stereo partly drawn) [Compound 1, 17-cyclopropylmethyl-3,14β-dihydroxy-4,5α-epoxy-17-methyl-6β-(N-methyl-trans-3-(3-furyl)acrylamido)morphinanium iodide] | 1.94 nM | 0.03 nM | 4.42 nM | 14.18 nM | 0.17 nM | 202.4 to 207.9 °C (dec.) | 16.67 nM | 11.23 nM |  |  |
| COc1cccc(/C=C/C(=O)N(C)[C@@H]2CC[C@@]3(O)[C@H]4Cc5ccc(O)c6c5[C@@]3(CC[N+]4(C)CC3CC3)[C@H]2O6)c1.[I-] (stereo partly drawn) [Compound 2, 17-cyclopropylmethyl-3,14β-dihydroxy-4,5α-epoxy-17-methyl-6β-(N-methyl-3-methoxycinnamamido)morphinanium.iodide] | 6.71 nM | 0.54 nM | 5.9 nM | 100 nM | 0.45 nM |  | 98.2 nM | 25 nM |  |  |
| Cl.O=C(C1CCc2cc(Cl)c(Cl)cc21)N1CCSCC1CN1CCCC1 (stereo not drawn) [Compound 21, 3-(1-pyrrolidinylmethyl)-4-[5,6-dichloro-1-indancarbonyl]-tetrahydro-1,4-thiazine hydrochloride] |  |  |  |  |  |  |  |  | 23% |  |
| CN(C(=O)NCc1ccccc1)[C@H]1CC[C@@]2(O)[C@H]3Cc4ccc(O)c5c4[C@@]2(CCN3CC2CC2)[C@H]1O5.O=C(O)C(O)C(O)C(=O)O [Compound 12, 17-cyclopropylmethyl-3,14β-dihydroxy-4,5α-epoxy-6α-(N-methyl-N-benzylureido)morphinan tartrate] |  |  |  |  |  |  |  |  | 39% |  |
| CN(C(=O)C#Cc1ccc(C(F)(F)F)cc1)[C@@H]1CC[C@@]2(O)[C@H]3Cc4ccc(O)c5c4[C@@]2(CC[N+]3([O-])CC2CC2)[C@H]1O5 (stereo partly drawn) [Compound 5, 17-cyclopropylmethyl-4,5α-epoxy-3,14β-dihydroxy-6β-[N-methyl-3-(4-trifluoromethylphenyl)propyolamido]morphinan-N-oxide] | 1.55 nM | 0.19 nM | 0.59 nM | 5.9 nM | 0.33 nM | 205 to 208 °C (dec.) | 29.5 nM | 5.0 nM |  |  |
| CN(C(=O)/C=C/c1ccoc1)[C@@H]1CC[C@@]2(O)[C@H]3Cc4ccc(O)c5c4[C@@]2(CCN3CC2CC2)[C@H]1O5.Cl [Compound 7, (−)-17-(cyclopropylmethyl)-3,14β-dihydroxy-4,5α-epoxy-6β-[N-methyl-trans-3-(3-furyl)acrylamido]morphinan hyrochloride] |  |  |  |  |  |  |  |  |  | Intensity of itching five minutes after the treatment ([4]; urticaria lesions on lower limb, topical 0.2 μg/cm^2 (40 μg/ml in saline), before treatment “++”): −; Duration of no itching state ([4]; urticaria, topical 0.2 μg/cm^2): about five; Duration of no itching state ([5]; topical 0.2 μg/cm^2): at least three; Relief from itching (in words) ([5]; topical, Compound 7 0.2 μg/cm^2 (in five minutes), indomethacin cream 75 μg/cm2): eradicated itching completely; Intensity of itching 5 minutes after application [5, 6]: −; Intensity of itching 10 minutes after application [5, 6]: −; Intensity of itching 3 hours after application [5, 6]: − |
| Cc1cccc(C#CC(=O)N(C)[C@@H]2CC[C@@]3(O)[C@H]4Cc5ccc(O)c6c5[C@@]3(CC[N+]4([O-])CC3CC3)[C@H]2O6)c1 (stereo partly drawn) [Compound 6, 17-cyclopropylmethyl-4,5α-epoxy-3,14β-dihydroxy-6β-[N-methyl-3-(3-methylphenyl)propyolamido]morphinan-N-oxide] | 11.3 nM | 0.89 nM | 4.6 nM |  | 0.26 nM | 192 to 202 °C (dec.) | 75.1 nM | 20 nM |  |  |
| COc1cccc(/C=C/C(=O)N(C)[C@@H]2CC[C@@]3(O)[C@H]4Cc5ccc(O)c6c5[C@@]3(CC[N+]4([O-])CC3CC3)[C@H]2O6)c1 (stereo partly drawn) [Compound 4, 17-cyclopropylmethyl-4,5α-epoxy-3,14β-dihydroxy-6β-(N-methyl-3-methoxycinnamamido)morphinan-N-oxide] | 4.09 nM | 0.09 nM | 1.8 nM | 50 nM | 0.67 nM | 234 to 236.8 °C (dec.) | 28.7 nM | 11 nM |  |  |
| CN(C(=O)Cc1ccc(Cl)c(Cl)c1)C(CN1CCCC1)c1ccccc1.Cl (stereo not drawn) [Compound 20] |  |  |  |  |  |  |  |  | 62% |  |
